In US6339045B1, “N-(unsubstituted or substituted)-4-substituted-6-(unsubstituted or substituted)phenoxy-2-pyridinecarboxamides or thiocarboxamides, processes for producing the same, and herbicides” (Kureha Kagaku Kogyo Kabushiki Kaisha, priority 1995, dated 2002):

What was measured:
Experiment in all cases: Herbicidal effect by foliage and soil treatment
Format in all cases: in vivo
Settings in all cases: 10 g ai/10a, evaluated after 14 days
[1] = tested on: black nightshade (Solanum nigrum)
From the text: (§1) Experiment for Determination of Herbicidal Effect by Foliate and Soil Treatment Seeds of redroot pigweed (Amaranthus retroflexus), common blackjack (Bidens pilosa), kediock (Sinapis arvensis), common chickweed (Stellaria media), sicklepod (Cassia obtusifolia), black nightshade (Solanum nigrum), velvetleaf (Abutilon theophrasti), field bindweed (Convolvulus arvensis), wild chamomile (Matricaria chamomilla), cleavers (Galium aparine) and […] (Veronica hederaefolia), were uniformly sowed over a horticultural granular soil (produced by KUREHA CHEMICAL INDUSTRY, CO., LTD.; the same soil was used hereinafter) filled in a planter. The planter was placed in a greenhouse (maintained at 19 to 25° C.) to sprout these plants. Two seedlings of each sprouted plant were transplanted to a 10 cm-diameter pot filled with the horticultural granular soil and cultivated in the greenhouse (maintained at 19 to 25° C.) until reaching a cotyledonal to bifoliate period suited to the foliage and soil treatment. […] Next, additional amounts of Tween 20 and water were added to the obtained solution or suspension to produce a test solution. The plants prepared in the above (1) were placed within a frame having a predetermined inside area, and uniformly sprayed with the test solution using a sprayer such that the amount of each compound applied was controlled to a predetermined level. The plants sprayed with the test solution were placed again in the greenhouse (maintained at 19 to 25° C.) and cultivated therein. After 14 days, the degree of growth of each plant cultivated in the treated region was compared with that of plant cultivated in non-treated region, and evaluated according to the following ratings. The herbicidal activity of each test compound was represented by these ratings

[2] = tested on: cleavers (Galium aparine)
From the text: as §1

[3] = tested on: common blackjack (Bidens pilosa)
From the text: as §1

[4] = tested on: common chickweed (Stellaria media)
From the text: as §1

[5] = tested on: field bindweed (Convolvulus arvensis)
From the text: as §1

[6] = tested on: ivyleafspeedwell (Veronica hederaefolia)
From the text: as §1

[7] = tested on: kediock (Sinapis arvensis)
From the text: as §1

[8] = tested on: redroot pigweed (Amaranthus retroflexus)
From the text: as §1

[9] = tested on: sicklepod (Cassia obtusifolia)
From the text: as §1

[10] = tested on: velvetleaf (Abutilon theophrasti)
From the text: as §1

[11] = tested on: wild chamomile (Matricaria chamomilla)
From the text: as §1

| Structure (SMILES) | herbicidal activity rating, SN (Solanum nigrum) [1] | herbicidal activity rating, GA (Galium aparine) [2] | herbicidal activity rating, BP (Bidens pilosa) [3] | herbicidal activity rating, SM (Stellaria media) [4] | herbicidal activity rating, CA (Convolvulus arvensis) [5] | herbicidal activity rating, VH (Veronica hederaefolia) [6] | herbicidal activity rating, SA (Sinapis arvensis) [7] | herbicidal activity rating, AR (Amaranthus retroflexus) [8] | herbicidal activity rating, CO (Cassia obtusifolia) [9] | herbicidal activity rating, AT (Abutilon theophrasti) [10] | herbicidal activity rating, MC (Matricaria chamomilla) [11] |
| --- | --- | --- | --- | --- | --- | --- | --- | --- | --- | --- | --- |
| COCCCNC(=O)c1cc(OC)cc(Oc2cccc(C(F)(F)F)c2)n1 [Compound I-75] | 5 (percentage of weeds killed was not less than 80%) | 5 (percentage of weeds killed was not less than 80%) | 3 (percentage of weeds killed was not less than 40% and less than 60%) | 5 (percentage of weeds killed was not less than 80%) | 4 (percentage of weeds killed was not less than 60% and less than 80%) | 5 (percentage of weeds killed was not less than 80%) | 5 (percentage of weeds killed was not less than 80%) | 5 (percentage of weeds killed was not less than 80%) | 5 (percentage of weeds killed was not less than 80%) | 3 (percentage of weeds killed was not less than 40% and less than 60%) | 4 (percentage of weeds killed was not less than 60% and less than 80%) |
| CCCNC(=S)c1cccc(Oc2cccc(C(F)(F)F)c2)n1 [control (c)] | 4 (percentage of weeds killed was not less than 60% and less than 80%) | 4 (percentage of weeds killed was not less than 60% and less than 80%) | 1 (percentage of weeds killed was less than 20%) | 3 (percentage of weeds killed was not less than 40% and less than 60%) | 2 (percentage of weeds killed was not less than 20% and less than 40%) | 5 (percentage of weeds killed was not less than 80%) | 5 (percentage of weeds killed was not less than 80%) | 5 (percentage of weeds killed was not less than 80%) | 2 (percentage of weeds killed was not less than 20% and less than 40%) | 3 (percentage of weeds killed was not less than 40% and less than 60%) | 1 (percentage of weeds killed was less than 20%) |
| COc1cc(Oc2cccc(C(F)(F)F)c2)nc(C(=O)NCc2ccccc2)c1 [Compound I-45, N-benzyl-4-methoxy-6-{3-(trifluoromethyl)phenoxy}-2-pyridine carboxamide] | 5 (percentage of weeds killed was not less than 80%) | 5 (percentage of weeds killed was not less than 80%) | 5 (percentage of weeds killed was not less than 80%) | 5 (percentage of weeds killed was not less than 80%) | 5 (percentage of weeds killed was not less than 80%) | 5 (percentage of weeds killed was not less than 80%) | 5 (percentage of weeds killed was not less than 80%) | 5 (percentage of weeds killed was not less than 80%) | 5 (percentage of weeds killed was not less than 80%) | 4 (percentage of weeds killed was not less than 60% and less than 80%) | 2 (percentage of weeds killed was not less than 20% and less than 40%) |
| COc1cc(Oc2cccc(C(F)(F)F)c2)nc(C(=O)NCCCCl)c1 [Compound I-79] | 5 (percentage of weeds killed was not less than 80%) | 5 (percentage of weeds killed was not less than 80%) | 5 (percentage of weeds killed was not less than 80%) | 5 (percentage of weeds killed was not less than 80%) | 4 (percentage of weeds killed was not less than 60% and less than 80%) | 5 (percentage of weeds killed was not less than 80%) | 5 (percentage of weeds killed was not less than 80%) | 5 (percentage of weeds killed was not less than 80%) | 5 (percentage of weeds killed was not less than 80%) | 5 (percentage of weeds killed was not less than 80%) | 5 (percentage of weeds killed was not less than 80%) |
| CCN(CC)C(=O)c1cc(OC)cc(Oc2cccc(C(F)(F)F)c2)n1 [Compound I-200, N,N-diethyl-4-methoxy-6-{3-(trifluoromethyl)phenoxy}-2-pyridine carboxamide] | 5 (percentage of weeds killed was not less than 80%) | 5 (percentage of weeds killed was not less than 80%) | 2 (percentage of weeds killed was not less than 20% and less than 40%) | 5 (percentage of weeds killed was not less than 80%) | 5 (percentage of weeds killed was not less than 80%) | 5 (percentage of weeds killed was not less than 80%) | 5 (percentage of weeds killed was not less than 80%) | 5 (percentage of weeds killed was not less than 80%) | 5 (percentage of weeds killed was not less than 80%) | 5 (percentage of weeds killed was not less than 80%) | 4 (percentage of weeds killed was not less than 60% and less than 80%) |
| CCOCNC(=O)c1cc(OC)cc(Oc2cccc(C(F)(F)F)c2)n1 [Compound I-87, N-(ethoxymethyl)-4-methoxy-6-{3-(trifluoromethyl)phenoxy}-2-pyridine carboxamide] | 5 (percentage of weeds killed was not less than 80%) | 5 (percentage of weeds killed was not less than 80%) | 5 (percentage of weeds killed was not less than 80%) | 5 (percentage of weeds killed was not less than 80%) | 5 (percentage of weeds killed was not less than 80%) | 5 (percentage of weeds killed was not less than 80%) | 5 (percentage of weeds killed was not less than 80%) | 5 (percentage of weeds killed was not less than 80%) | 5 (percentage of weeds killed was not less than 80%) | 5 (percentage of weeds killed was not less than 80%) | 5 (percentage of weeds killed was not less than 80%) |
| COc1cc(Oc2cccc(C(F)(F)F)c2)nc(C(=O)NN(C)C)c1 [Compound I-109] | 5 (percentage of weeds killed was not less than 80%) | 5 (percentage of weeds killed was not less than 80%) | 5 (percentage of weeds killed was not less than 80%) | 4 (percentage of weeds killed was not less than 60% and less than 80%) | 4 (percentage of weeds killed was not less than 60% and less than 80%) | 5 (percentage of weeds killed was not less than 80%) | 5 (percentage of weeds killed was not less than 80%) | 5 (percentage of weeds killed was not less than 80%) | 5 (percentage of weeds killed was not less than 80%) | 5 (percentage of weeds killed was not less than 80%) | 4 (percentage of weeds killed was not less than 60% and less than 80%) |
